Results reported in ChEMBL document CHEMBL1781953, “Synthesis and antimycobacterial activity of 5-formylaminopyrimidines; analogs of antibacterial purines” (Bioorg Med Chem Lett, 2009).
Values after ≈ are worked out from the molar mass of the structure shown.

How the values were obtained:
[1] = tested on: Mycobacterium tuberculosis; experiment: Antimycobacterial activity against Mycobacterium tuberculosis H37Rv ATCC 27294 by microplate alamar blue assay; assay type: functional, organism-based
Escherichia coli = experiment: Antibacterial activity against Escherichia coli; assay type: functional
Staphylococcus aureus = experiment: Antibacterial activity against Staphylococcus aureus; assay type: functional
Vero = experiment: Cytotoxicity against african green monkey Vero cells after 72 hrs by MTT assay; assay type: cell-based; conditions: Chlorocebus sabaeus
[2] = Cytotoxicity against african green monkey Vero cells assessed as cell viability at 40 ug/mL after 72 hrs by MTT assay; assay type: cell-based; conditions: chlorocebus sabaeus, read-out: Activity

| Compound | IC50 [1] | IC90 [1] | MIC (Escherichia coli) | MIC (Staphylococcus aureus) | EC50 (Vero) | viability at 72 h, 40 ug/mL [2] |
| --- | --- | --- | --- | --- | --- | --- |
| COc1ccc(CNc2nc(C(F)(F)F)nc(-c3ccco3)c2NC=O)cc1 | 0.26 µg/mL (≈ 0.663 µM) | 0.58 µg/mL (≈ 1.48 µM) | – | – | – | – |
| COc1ccc(CNc2nc(F)nc(-c3ccco3)c2NC=O)cc1 | – | – | > 64 µg/mL | > 64 µg/mL | – | – |
| GENTAMICIN | – | – | – | 0.1 µg/mL | – | – |
| COc1ccc(CNc2ncnc(-c3ccco3)c2NC=O)cc1 | – | – | > 64 µg/mL | > 64 µg/mL | – | – |
| COc1ccc(CNc2nc([N+](=O)[O-])nc(-c3ccco3)c2NC=O)cc1 | – | – | > 64 µg/mL | > 64 µg/mL | > 40 µg/mL | 62% |
| COc1ccc(CNc2nc(Cl)nc(-c3ccco3)c2NC=O)cc1 | – | – | > 64 µg/mL | > 64 µg/mL | – | – |
